Laboratory results as given in patent US20260198498A1, “FUNGICIDAL COMPOSITIONS” (SYNGENTA CROP PROTECTION AG, priority 2022, published 2026).

How the values were obtained:
Pyrenophora teres = assay: Example B18: Pyrenophora teres/Barley/Leaf Disc Preventative (Net Blotch); type: in vivo; details: foliar, barley leaf segments, inoculated 2 days after application
Procedure: Example B18: Pyrenophora teres/Barley/Leaf Disc Preventative (Net Blotch)
Barley leaf segments cv. Hasso are placed on agar in a multiwell plate (24-well format) and sprayed with the formulated test compound diluted in water. The leaf segments are inoculated with a spore suspension of the fungus 2 days after application. The inoculated leaf segments are incubated at 20° C. and 65% rh under a light regime of 12 h light/12 h darkness in a climate cabinet and the activity of a compound is assessed as disease control compared to untreated when an appropriate level of disease damage appears in untreated check leaf segments (5-7 days after application).

[1] = test system: Glomerella lagenarium (Colletotrichum lagenarium); assay: Example B5: Glomerella lagenarium (Colletotrichum lagenarium)/Liquid Culture (Anthracnose); type: cell-based; details: Colletotrichum orbiculare, liquid culture, photometrically 3 to 4 days after application, read-out: control of Glomerella lagenarium
Procedure: Example B5: Glomerella lagenarium (Colletotrichum lagenarium)/Liquid Culture (Anthracnose)
(§1) Conidia of the fungus from cryogenic storage are directly mixed into nutrient broth (PDB potato dextrose broth). After placing a (DMSO) solution of test compound into a microtiter plate (96-well format), the nutrient broth containing the fungal spores is added. The test plates are incubated at 24° C. and the inhibition of growth is measured photometrically 3 to 4 days after application.

[2] = test system: Mycosphaerella graminicola (Septoria tritici); assay: Example B21: Mycosphaerella graminicola (Septoria tritici)/Liquid Culture (Septoria Blotch); type: cell-based; details: Zymoseptoria tritici, liquid culture, photometrically 4-5 days after application, read-out: control of Mycosphaerella graminicola
Procedure: Example B21: Mycosphaerella graminicola (Septoria tritici)/Liquid Culture (Septoria Blotch)
as §1, with “determined” for “measured”, “4-5” for “3 to 4”

[3] = test system: Monographella nivalis (Microdochium nivale); assay: Example B12: Monographella nivalis (Microdochium nivale)/Liquid Culture (Foot Rot Cereals); type: cell-based; details: liquid culture, photometrically 4 to 5 days after application, read-out: control of Monographella nivalis
Procedure: Example B12: Monographella nivalis (Microdochium nivale)/Liquid Culture (Foot Rot Cereals)
as §1, with “is determined” for “is measured”, “photometrically 4” for “photometrically 3”, “to 5” for “to 4”

[4] = test system: Mycosphaerella arachidis (Cercospora arachidicola); assay: Example B13: Mycosphaerella arachidis (Cercospora arachidicola)/Liquid Culture (Early Leaf Spot); type: cell-based; details: liquid culture, photometrically 4 to 5 days after application, read-out: control of Mycosphaerella arachidis
Procedure: Example B13: Mycosphaerella arachidis (Cercospora arachidicola)/Liquid Culture (Early Leaf Spot)
as §1, with “is determined” for “is measured”, “photometrically 4” for “photometrically 3”, “to 5” for “to 4”

[5] = test system: Botryotinia fuckeliana (Botrytis cinerea); assay: Example B2: Botryotinia fuckeliana (Botrytis cinerea)/Liquid Culture (Gray Mould); type: cell-based; details: liquid culture, growth inhibition photometrically 3 to 4 days after application, read-out: control of Botryotinia fuckeliana
Procedure: Example B2: Botryotinia fuceliana (Botrytis cinerea)/Liquid Culture (Gray Mould)
as §1, with “(Vogels” for “(PDB potato dextrose”, “determined” for “measured”

[6] = test system: Phaeosphaeria nodorum (Septoria nodorum); assay: Example B11: Phaeosphaeria nodorum (Septoria nodorum)/Wheat/Leaf Disc Preventative (Glume Blotch); type: in vivo; details: Parastagonospora nodorum, foliar, wheat leaf segments, inoculated 2 days after application
Procedure: Example B11: Phaeosphaeria nodorum (Septoria nodorum)/Wheat/Leaf Disc Preventative (Glume Blotch)
Wheat leaf segments cv. Kanzler are placed on agar in a multiwell plate (24-well format) and sprayed with the formulated test compound diluted in water. The leaf disks are inoculated with a spore suspension of the fungus 2 days after application. The inoculated test leaf disks are incubated at 20° C. and 75% rh under a light regime of 12 h light/12 h darkness in a climate cabinet and the activity of a compound is assessed as percent disease control compared to untreated when an appropriate level of disease damage appears in untreated check leaf disks (5-7 days after application).

Cc1c(C2CN(C(=O)c3nnc(-c4ccc(F)cc4F)o3)Cc3ccccc32)cnn1C (centres unmarked) [X.01, [5-(2,4-difluorophenyl)-1,3,4-oxadiazol-2-yl]-[4-(1,5-dimethylpyrazol-4-yl)-3,4-dihydro-1H-isoquinolin-2-yl]methanone]
≥ 80%: pest or weed control at 200 ppm (Pyrenophora teres) | inhibition of growth at 20 ppm [1] | inhibition of growth at 20 ppm [2] | inhibition of growth at 20 ppm [3]

CCCc1nnc(C(=O)N2Cc3ccccc3C(c3cnn(C)c3C)C2)s1 (centres unmarked) [X.03, [4-(1,5-dimethylpyrazol-4-yl)-3,4-dihydro-1H-isoquinolin-2-yl]-(5-propyl-1,3,4-thiadiazol-2-yl)methanone]
≥ 80%: inhibition of growth at 20 ppm [4] | inhibition of growth at 20 ppm [1] | inhibition of growth at 20 ppm [2]

Cc1c(C2CN(C(=O)c3nnc(C4CCCCC4)s3)Cc3ccccc32)cnn1C (centres unmarked) [X.04, (5-cyclohexyl-1,3,4-thiadiazol-2-yl)-[4-(1,5-dimethylpyrazol-4-yl)-3,4-dihydro-1H-isoquinolin-2-yl]methanone]
≥ 80%: inhibition of growth at 20 ppm [4] | inhibition of growth at 20 ppm [1] | inhibition of growth at 20 ppm [2] | inhibition of growth at 20 ppm [3]

COc1ccc2c(c1)[C@@H](c1cnn(C)c1)CN(C(=O)c1cc(-c3ccc(F)cc3F)on1)[C@H]2C [X.05, [5-(2,4-difluorophenyl)isoxazol-3-yl]-[(1S,4S)-6-methoxy-1-methyl-4-(1-methylpyrazol-4-yl)-3,4-dihydro-1H-isoquinolin-2-yl]methanone]
≥ 80%: inhibition of growth at 20 ppm [5] | inhibition of growth at 20 ppm [4] | inhibition of growth at 20 ppm [2] | inhibition of growth at 20 ppm [3]

Cn1cc([C@]2(C)CN(C(=O)c3nnc(-c4ccc(F)cc4F)s3)Cc3ccccc32)cn1 [X.06, [5-(2,4-difluorophenyl)-1,3,4-thiadiazol-2-yl]-[(4R)-4-methyl-4-(1-methylpyrazol-4-yl)-1,3-dihydroisoquinolin-2-yl]methanone]
≥ 80%: inhibition of growth at 20 ppm [5] | inhibition of growth at 20 ppm [4] | pest or weed control at 200 ppm (Pyrenophora teres) | inhibition of growth at 20 ppm [1] | pest or weed control at 200 ppm [6] | inhibition of growth at 20 ppm [2] | inhibition of growth at 20 ppm [3]

Cn1cc(C2(C)CN(C(=O)c3nnc(-c4ccc(F)cc4F)s3)Cc3ccccc32)cn1 (centres unmarked) [X.07, [5-(2,4-difluorophenyl)-1,3,4-thiadiazol-2-yl]-[4-methyl-4-(1-methylpyrazol-4-yl)-1,3-dihydroisoquinolin-2-yl]methanone]
≥ 80%: inhibition of growth at 20 ppm [5] | inhibition of growth at 20 ppm [4] | inhibition of growth at 20 ppm [1] | inhibition of growth at 20 ppm [2] | inhibition of growth at 20 ppm [3]

CC(=O)c1c(C2CN(C(=O)c3cc(-c4ccc(F)cc4F)on3)Cc3ccccc32)cnn1C (centres unmarked) [X.08, 1-[4-[2-[5-(2,4-difluorophenyl)isoxazole-3-carbonyl]-3,4-dihydro-1H-isoquinolin-4-yl]-2-methyl-pyrazol-3-yl]ethanone]
≥ 80%: inhibition of growth at 20 ppm [4] | pest or weed control at 200 ppm (Pyrenophora teres) | inhibition of growth at 20 ppm [1] | inhibition of growth at 20 ppm [2] | inhibition of growth at 20 ppm [3]

COC(=O)C1c2ccccc2C(c2cnn(C)c2)CN1C(=O)c1cc(-c2ccc(F)cc2F)on1 (centres unmarked) [X.09, methyl 2-[5-(2,4-difluorophenyl)isoxazole-3-carbonyl]-4-(1-methylpyrazol-4-yl)-3,4-dihydro-1H-isoquinoline-1-carboxylate]
≥ 80%: inhibition of growth at 20 ppm [5] | inhibition of growth at 20 ppm [4] | pest or weed control at 200 ppm [6] | inhibition of growth at 20 ppm [2] | inhibition of growth at 20 ppm [3]

Cn1cc(C2CN(C(=O)c3nnc(-c4ccc(F)cc4)o3)Cc3ccccc32)cn1 (centres unmarked) [X.10, [5-(4-fluorophenyl)-1,3,4-oxadiazol-2-yl]-[4-(1-methylpyrazol-4-yl)-3,4-dihydro-1H-isoquinolin-2-yl]methanone]
≥ 80%: pest or weed control at 200 ppm (Pyrenophora teres) | inhibition of growth at 20 ppm [1] | pest or weed control at 200 ppm [6] | inhibition of growth at 20 ppm [2] | inhibition of growth at 20 ppm [3]

Cn1ncc(C2CN(C(=O)c3cc(-c4ccc(F)cc4F)on3)Cc3ccccc32)c1Cl (centres unmarked) [X.11, [4-(5-chloro-1-methyl-pyrazol-4-yl)-3,4-dihydro-1H-isoquinolin-2-yl]-[5-(2,4-difluorophenyl)isoxazol-3-yl]methanone]
≥ 80%: inhibition of growth at 20 ppm [5] | inhibition of growth at 20 ppm [4] | pest or weed control at 200 ppm (Pyrenophora teres) | inhibition of growth at 20 ppm [1] | pest or weed control at 200 ppm [6] | inhibition of growth at 20 ppm [2] | inhibition of growth at 20 ppm [3]

Cn1ncc(C2CN(C(=O)c3cc(-c4ccc(F)cc4F)on3)Cc3ccccc32)c1F (centres unmarked) [X.12, [5-(2,4-difluorophenyl)isoxazol-3-yl]-[4-(5-fluoro-1-methyl-pyrazol-4-yl)-3,4-dihydro-1H-isoquinolin-2-yl]methanone]
≥ 80%: inhibition of growth at 20 ppm [5] | inhibition of growth at 20 ppm [4] | pest or weed control at 200 ppm (Pyrenophora teres) | inhibition of growth at 20 ppm [1] | pest or weed control at 200 ppm [6] | inhibition of growth at 20 ppm [2] | inhibition of growth at 20 ppm [3]

Cn1cc(C2c3ccccc3CN(C(=O)c3cc(-c4ccc(F)cc4F)on3)C2(C)C)cn1 (centres unmarked) [X.13, [5-(2,4-difluorophenyl)isoxazol-3-yl]-[3,3-dimethyl-4-(1-methylpyrazol-4-yl)-1,4-dihydroisoquinolin-2-yl]methanone]
≥ 80%: inhibition of growth at 20 ppm [5] | inhibition of growth at 20 ppm [4] | pest or weed control at 200 ppm (Pyrenophora teres) | inhibition of growth at 20 ppm [1] | pest or weed control at 200 ppm [6] | inhibition of growth at 20 ppm [2] | inhibition of growth at 20 ppm [3]

Cc1nn(C)c(C)c1C1CN(C(=O)c2cc(-c3ccc(F)cc3F)on2)Cc2ncccc21 (centres unmarked) [X.15, [5-(2,4-difluorophenyl)isoxazol-3-yl]-[5-(1,3,5-trimethylpyrazol-4-yl)-6,8-dihydro-5H-1,7-naphthyridin-7-yl]methanone]
≥ 80%: inhibition of growth at 20 ppm [4] | pest or weed control at 200 ppm (Pyrenophora teres) | inhibition of growth at 20 ppm [1] | inhibition of growth at 20 ppm [2] | inhibition of growth at 20 ppm [3]

Cn1cc(C2CN(C(=O)c3cc(C4CCCCC4)no3)Cc3ccccc32)cn1 (centres unmarked) [X.18, (3-cyclohexylisoxazol-5-yl)-[4-(1-methylpyrazol-4-yl)-3,4-dihydro-1H-isoquinolin-2-yl]methanone]
≥ 80%: inhibition of growth at 20 ppm [4] | inhibition of growth at 20 ppm [1] | inhibition of growth at 20 ppm [2] | inhibition of growth at 20 ppm [3]

Cn1cc(C2CN(C(=O)c3nnc(-c4ccccc4)o3)Cc3ccccc32)cn1 (centres unmarked) [X.19, [4-(1-methylpyrazol-4-yl)-3,4-dihydro-1H-isoquinolin-2-yl]-(5-phenyl-1,3,4-oxadiazol-2-yl)methanone]
≥ 80%: inhibition of growth at 20 ppm [5] | inhibition of growth at 20 ppm [4] | inhibition of growth at 20 ppm [1] | inhibition of growth at 20 ppm [2] | inhibition of growth at 20 ppm [3]

Cn1cc(C2CN(C(=O)c3cc(-c4ccncc4)on3)Cc3ccccc32)cn1 (centres unmarked) [X.23, [4-(1-methylpyrazol-4-yl)-3,4-dihydro-1H-isoquinolin-2-yl]-[5-(4-pyridyl)isoxazol-3-yl]methanone]
≥ 80%: inhibition of growth at 20 ppm [2]

Cc1c(C2CN(C(=O)c3nnc(-c4ncc(F)cc4F)s3)Cc3ccccc32)cnn1C (centres unmarked) [X.28, [5-(3,5-difluoro-2-pyridyl)-1,3,4-thiadiazol-2-yl]-[4-(1,5-dimethylpyrazol-4-yl)-3,4-dihydro-1H-isoquinolin-2-yl]methanone]
≥ 80%: inhibition of growth at 20 ppm [4] | pest or weed control at 200 ppm (Pyrenophora teres) | inhibition of growth at 20 ppm [1] | pest or weed control at 200 ppm [6] | inhibition of growth at 20 ppm [2]
